“And” between values parts separate entries of the source, which are not always exact repeats. Equal values may be shown once. Read-outs that look alike come from different tables or passages of the source. Marks after values point to notes of the source that are not given here.
What was measured:
SiHa xenografts = assay: SiHa xenograft tumor regrowth assay with fractionated radiation; assay type: in vivo, CD-1 nude mice; conditions: for Radiation-induced tumor regrowth delay: 30 min before each of 2 Gy × 8
HT29 cells [1] = conditions: HT29 cell suspensions, mean ± SEM
[2] = system: HT29, SiHa and H460 xenografts; assay: Excision; assay type: in vivo, CD-1 nude mice; conditions: three xenograft models, 75% of MTD
HT29 MCL [3] = assay: Diffusion in multicellular layers; conditions: higher than TPZ
HT29 cells [4] = assay: Clonogenic cell killing in stirred single cell suspensions; assay type: cell-based, human; conditions: anoxia, mean ± SEM
HT29 cells [5] = assay: Oxygen dependence of cytotoxicity and metabolism in stirred cell suspensions; assay type: cell-based, human; conditions: mean ± SEM
[6] = cited from earlier work
[7] = cited from earlier work; remark: listed apart in the source
8 human tumor cell lines = assay: In vitro growth inhibition; assay type: cell-based; conditions: 8 cell lines
[8] = cited from earlier work; remark: listed apart in the source
[9] = Animal toxicity: maximum tolerated dose in rats; assay type: in vivo
[10] = Plasma pharmacokinetics in mice; conditions: male CD-1 nude mice, single i.p. dose at 75% of MTD
[11] = mouse, in vivo
[12] = Mouse plasma protein binding; assay type: in vitro ADME; conditions: mean ± SEM
[13] = Animal toxicity: maximum tolerated dose in mice; assay type: in vivo
HT29 MCL [14] = system: HT29 MCL
[15] = cited from earlier work; remark: listed apart in the source
[16] = mouse; cited from earlier work
HT29 cells [17] = conditions: cited from earlier work

## [O-][n+]1nc(CCCN2CCOCC2)[n+]([O-])c2cc3c(cc21)CCC3 [SN30000]
SiHa xenografts; 176 µmol/kg/dose, p=0.0058 log rank test
  Radiation-induced tumor regrowth delay: highly significant increases
SiHa xenografts; 263 µmol/kg/dose, 8-dose schedule, without radiation
  Activity of drug alone in tumor regrowth assay: not significantly active
SiHa xenografts; 263 µmol/kg/dose, p=0.0004 log rank test
  Radiation-induced tumor regrowth delay: highly significant increases
HT29 cells [1]
  kmet0, first order rate constant for prodrug metabolism under anoxia: 1.53 ± 0.21 min^−1 and 1.53 ± 0.21 (8) min^−1
[2]
  Therapeutic gain over TPZ with single dose radiation: ~3 fold
HT29 MCL [3]
  DMCL relative to TPZ: 3 fold
HT29 cells [4]
  γ, proportionality constant in PD model (anoxic clonogenic potency coefficient): 5.34 ± 0.89 (13) ×10^−5 µM^−2
HT29 cells [5]
  KO2, O2 concentration to halve anoxic cytotoxic potency: 1140 ± 240 nM
[6]
  Log P, pH 7.4 (octanol:water partition coefficient): 0.50 ± 0.05 ^c
[7]
  Solubility in culture medium at 37°C: 48.5 ^c mM
8 human tumor cell lines
  HCR (aerobic IC50 / anoxic IC50) compared across compounds: consistently higher
8 human tumor cell lines; 4 h exposure, anoxia
  Potency under anoxia (hypoxic IC50) compared with TPZ: consistently more potent than TPZ
[8]
  E(1) One electron reduction potential: −399 ± 8 ^c mV
  One-electron reduction potential difference (higher than TPZ): 57 mV
[9]; Sprague-Dawley rats, both sexes, single i.p. dose
  MTD: 316 µmol/kg
[10]
  AUCp∞, area under the plasma (total drug) concentration-time curve extrapolated to infinity in mice: 79 µM·h
  t½, plasma terminal half life in mice: 32 min and 32.1 min
[11]
  i.p. bioavailability: 77%
[12]
  θ, free fraction of drug in plasma in mice: 83 ± 1%
[13]; i.p., 9 am and 3 pm, 4 consecutive days, CD-1 nude mice
  MTD for bi-daily dosing for 4 consecutive days (BID1-4): 237 µmol/kg
[13]; single i.p. administration, male CD-1 nude mice
  Maximum tolerated dose (MTD): 275 mg/kg
[13]; single i.p., male CD-1 nude mice, higher than TPZ
  MTD (molar dose) relative to TPZ: 4.2 fold
HT29 MCL [14]
  D, diffusion coefficient in HT29 MCLs and tumors: 1.26 ± 0.11 (6) ×10^−6 cm^2s^−1
[15]
  Calculated amine pKa: 7.1 ^c

## Nc1n[n+]([O-])c2ccccc2[n+]1[O-] [TPZ, tirapazamine, reference compound]
[16]
  θ, free fraction of drug in plasma in mice: 100 ± 5.3 ^f %
HT29 cells [4]
  γ, proportionality constant in PD model (anoxic clonogenic potency coefficient): 2.41± 0.13 (72) ×10^−5 µM^−2
[6]
  Log P, pH 7.4 (octanol:water partition coefficient): −0.34 ± 0.02 ^a
[8]
  E(1) One electron reduction potential: −456 ± 8 ^a mV
[9]; both, Sprague-Dawley, rat, in vivo, ip
  MTD at 28 days: 178 µmol/kg
HT29 cells [17]
  KO2, O2 concentration to halve anoxic cytotoxic potency: 1.21 ± 0.09 ^d µM
[13]; CD-1 nu/nu, mouse, in vivo, ip
  MTD at 4 days: 75 µmol/kg
[13]; male, CD-1 nu/nu, mouse, in vivo, ip
  MTD at 28 days: 178 µmol/kg
HT29 MCL [14]; human
  D, diffusion coefficient in HT29 MCLs and tumors: 0.40 ± 0.02 (12) ×10^−6 cm^2s^−1

From paper PMC3390971 (Clinical Cancer Research, 2010)
